This passage reports inhibition, viability and IC50 results from ChEMBL document CHEMBL6078668, “Synthesis and biological evaluation of lappaconitine analogues as potential anti-neuroinflammatory agents by side chain modification and scaffold hopping strategy” (Bioorg Med Chem, 2025).

In series [1] the test system is BV-2. The series can be described thus: Anti-neuroinflammatory activity against LPS-stimulated C57BL/6 mouse BV-2 cells assessed as inhibition of NO release at 30 uM preincubated with compound for 4 hrs followed by LPS addition and measured after 24 hrs by Griess reagent based assay relative to control. The class given is functional. The note with it: C57BL/6, BV-2, time 28 hrs.

The nature of series [2]: Cytotoxicity against C57BL/6 mouse BV-2 cells assessed as survival rate at 30 uM incubated for 24 hrs by MTT assay relative to control. It counts as toxicity, cell-based. The following applies: read-out: Survival. (Tetrazolium dyes change colour on reduction, which living cells bring about.)
Series [3] has as its system BV-2. The series can be described thus: Anti-neuroinflammatory activity against LPS-stimulated C57BL/6 mouse BV-2 cells assessed as inhibition of NO release preincubated with compound for 4 hrs followed by LPS addition and measured after 24 hrs by Griess reagent based assay. The class given is functional, cell-based. The note with it: C57BL/6, BV-2.

Take `CCN1C[C@]2(OC(=O)c3ccccc3NC(=O)S(=O)(=O)c3ccccc3F)CC[C@H](OC)[C@]34C1[C@@H](C[C@H]23)[C@@]1(O)C[C@H](OC)[C@H]2C[C@@H]4[C@]1(O)[C@H]2OC`: the inhibition at 30 µM in the series with BV-2 [1] came out at 68%. Also, the viability at 24 h, 30 µM in series [2] came to 106%. Moreover, in the series on BV-2 [3], the IC50 was 18.9 µM.
For `CCN1C[C@]2(OC(=O)c3ccccc3NC(=O)c3ccc(Br)s3)CC[C@H](OC)[C@]34C1[C@@H](C[C@H]23)[C@@]1(O)C[C@H](OC)[C@H]2C[C@@H]4[C@]1(O)[C@H]2OC`, in that order: 72.9%, 103% and 16.5 µM.
Consider `CCCOc1ccc(C(=O)Nc2ccccc2C(=O)O[C@@]23CC[C@H](OC)[C@]45C([C@@H](C[C@H]24)[C@@]2(O)C[C@H](OC)[C@H]4C[C@@H]5[C@]2(O)[C@H]4OC)N(CC)C3)cc1`, for which the inhibition at 30 µM with BV-2 [1] came to 74.8%. The viability at 24 h, 30 µM in series [2] was 105%. Besides, the half-inhibitory concentration (IC50) in the series on BV-2 [3] came to 15.5 µM.
On to `CCCOc1ccccc1C(=O)Nc1ccccc1C(=O)O[C@@]12CC[C@H](OC)[C@]34C([C@@H](C[C@H]13)[C@@]1(O)C[C@H](OC)[C@H]3C[C@@H]4[C@]1(O)[C@H]3OC)N(CC)C2`, for which the inhibition at 30 µM in the series with BV-2 [1] stood at 78.5%. Moreover, the viability at 24 h, 30 µM in series [2] turned out to be 106%. For the same compound, the half-inhibitory concentration (IC50) in the series on BV-2 [3] is 11.8 µM.
Take `CCN1C[C@]2(OC(=O)c3ccccc3NC(=O)c3ccc(N(C)C)cc3)CC[C@H](OC)[C@]34C1[C@@H](C[C@H]23)[C@@]1(O)C[C@H](OC)[C@H]2C[C@@H]4[C@]1(O)[C@H]2OC`: the inhibition at 30 µM with BV-2 [1] came to 62.4%. Also, the viability at 24 h, 30 µM in series [2] was determined as 101%. The IC50 with BV-2 [3] stood at 23.6 µM.
On the same counts, the results for `CCN1C[C@]2(OC(=O)c3ccccc3NC(=O)CC(C)(C)C)CC[C@H](OC)[C@]34C1[C@@H](C[C@H]23)[C@@]1(O)C[C@H](OC)[C@H]2C[C@@H]4[C@]1(O)[C@H]2OC` are 74.8%, 106% and 16.1 µM.
Take `CCN1C[C@]2(OC(=O)c3ccccc3NC(=O)c3ccc(Cl)s3)CC[C@H](OC)[C@]34C1[C@@H](C[C@H]23)[C@@]1(O)C[C@H](OC)[C@H]2C[C@@H]4[C@]1(O)[C@H]2OC`: in the series on BV-2 [1], the inhibition at 30 µM stood at 82.1%. In series [2], the viability at 24 h, 30 µM turned out to be 108%. Moreover, the IC50 in the series with BV-2 [3] was found to be 11.3 µM.
On to `CCN1C[C@]2(OC(=O)c3ccccc3NC(=O)S(=O)(=O)c3cc(F)cc(F)c3)CC[C@H](OC)[C@]34C1[C@@H](C[C@H]23)[C@@]1(O)C[C@H](OC)[C@H]2C[C@@H]4[C@]1(O)[C@H]2OC`, for which the inhibition at 30 µM with BV-2 [1] worked out at 64.1%. Moreover, the viability at 24 h, 30 µM in series [2] was 102%. For the same compound, the IC50 in the series with BV-2 [3] turned out to be 20.4 µM.
As to `CCN1C[C@]2(OC(=O)c3ccccc3NC(=O)S(=O)(=O)c3ccc(Cl)nc3)CC[C@H](OC)[C@]34C1[C@@H](C[C@H]23)[C@@]1(O)C[C@H](OC)[C@H]2C[C@@H]4[C@]1(O)[C@H]2OC`, the inhibition at 30 µM in the series on BV-2 [1] was 33.5%. For the same compound, the viability at 24 h, 30 µM in series [2] was 104%.
For the compound `CCN1C[C@]2(OC(=O)c3ccccc3NC(=O)S(=O)(=O)c3ccc(OCc4ccccc4)cc3)CC[C@H](OC)[C@]34C1[C@@H](C[C@H]23)[C@@]1(O)C[C@H](OC)[C@H]2C[C@@H]4[C@]1(O)[C@H]2OC`, the inhibition at 30 µM in the series with BV-2 [1] stood at 21.3%. In addition, the viability at 24 h, 30 µM in series [2] is 102%.
In the case of `CCN1C[C@]2(COC(=O)c3ccccc3N)CC[C@H](OC)[C@]34C1[C@@H](C[C@H]23)[C@@]1(O)C[C@H](OC)[C@H]2C[C@@H]4[C@]1(O)[C@H]2OC`, the inhibition at 30 µM with BV-2 [1] came to 22%. Moreover, the viability at 24 h, 30 µM in series [2] stood at 91.9%.
On to `CCN1C[C@]2(OC(=O)c3ccccc3NC(=O)S(=O)(=O)c3ccc(F)cc3)CC[C@H](OC)[C@]34C1[C@@H](C[C@H]23)[C@@]1(O)C[C@H](OC)[C@H]2C[C@@H]4[C@]1(O)[C@H]2OC`, for which, in the series with BV-2 [1], the inhibition at 30 µM came out at 40.6%. Moreover, the viability at 24 h, 30 µM in series [2] was determined as 109%.
On to `CCN1C[C@]2(OC(=O)c3ccccc3NC(=O)c3cccc(C)c3)CC[C@H](OC)[C@]34C1[C@@H](C[C@H]23)[C@@]1(O)C[C@H](OC)[C@H]2C[C@@H]4[C@]1(O)[C@H]2OC`, for which, in the series with BV-2 [1], the inhibition at 30 µM worked out at 15.6%. Also, the viability at 24 h, 30 µM in series [2] was 112%.
For `CCN1C[C@]2(OC(=O)c3ccccc3NC(=O)S(=O)(=O)c3ccc(C4CCCCC4)cc3)CC[C@H](OC)[C@]34C1[C@@H](C[C@H]23)[C@@]1(O)C[C@H](OC)[C@H]2C[C@@H]4[C@]1(O)[C@H]2OC`, in that order: 38.5% and 93.7%.
For `CCCC(C)C(=O)Nc1ccccc1C(=O)O[C@@]12CC[C@H](OC)[C@]34C([C@@H](C[C@H]13)[C@@]1(O)C[C@H](OC)[C@H]3C[C@@H]4[C@]1(O)[C@H]3OC)N(CC)C2` (some centres not stated), in that order: 57.8% and 108%.
`CCN1C[C@]2(OC(=O)c3ccccc3NC(=O)S(=O)(=O)c3ccccc3C(F)(F)F)CC[C@H](OC)[C@]34C1[C@@H](C[C@H]23)[C@@]1(O)C[C@H](OC)[C@H]2C[C@@H]4[C@]1(O)[C@H]2OC`: the inhibition at 30 µM in the series with BV-2 [1] was 13.7%. In series [2], the viability at 24 h, 30 µM turned out to be 107%.
Take `CCN1C[C@]2(OC(=O)c3ccccc3NC(=O)c3ccccc3Br)CC[C@H](OC)[C@]34C1[C@@H](C[C@H]23)[C@@]1(O)C[C@H](OC)[C@H]2C[C@@H]4[C@]1(O)[C@H]2OC`: the inhibition at 30 µM in the series on BV-2 [1] was 32.5%. Further, the viability at 24 h, 30 µM in series [2] worked out at 106%.
Take `CCOc1ccc(C(=O)Nc2ccccc2C(=O)O[C@@]23CC[C@H](OC)[C@]45C([C@@H](C[C@H]24)[C@@]2(O)C[C@H](OC)[C@H]4C[C@@H]5[C@]2(O)[C@H]4OC)N(CC)C3)cc1`: in the series with BV-2 [1], the inhibition at 30 µM was 53.6%. For the same compound, the viability at 24 h, 30 µM in series [2] worked out at 101%.
Take `CCCCOC(=O)c1ccccc1NC(=O)c1ccc(CC)cc1`: the inhibition at 30 µM in the series on BV-2 [1] is 30.4%. The viability at 24 h, 30 µM in series [2] was determined as 103%.
Turning to `CCN1C[C@]2(OC(=O)c3ccccc3NC(=O)S(=O)(=O)c3cccnc3Cl)CC[C@H](OC)[C@]34C1[C@@H](C[C@H]23)[C@@]1(O)C[C@H](OC)[C@H]2C[C@@H]4[C@]1(O)[C@H]2OC`, the inhibition at 30 µM in the series with BV-2 [1] is 56.5%. Besides, the viability at 24 h, 30 µM in series [2] was 106%.
In the case of `CCN1C[C@]2(OC(=O)c3ccccc3NC(=O)S(=O)(=O)c3ccc(Cl)cc3)CC[C@H](OC)[C@]34C1[C@@H](C[C@H]23)[C@@]1(O)C[C@H](OC)[C@H]2C[C@@H]4[C@]1(O)[C@H]2OC`, in the series on BV-2 [1], the inhibition at 30 µM came to 39.2%. In addition, in series [2], the viability at 24 h, 30 µM amounted to 100%.
With `CCN1C[C@]2(OC(=O)c3ccccc3NC(=O)c3ccc(I)cc3)CC[C@H](OC)[C@]34C1[C@@H](C[C@H]23)[C@@]1(O)C[C@H](OC)[C@H]2C[C@@H]4[C@]1(O)[C@H]2OC`, in the series with BV-2 [1], the inhibition at 30 µM is 36.1%. In addition, the viability at 24 h, 30 µM in series [2] was found to be 100%.
Consider `CCCCOC(=O)c1ccccc1NC(=O)c1ccc(Cl)s1`, for which the inhibition at 30 µM with BV-2 [1] was determined as 42.8%. Further, the viability at 24 h, 30 µM in series [2] amounted to 110%.
Take `CCN1C[C@]2(OC(=O)c3ccccc3NC(=O)S(=O)(=O)c3cc(Cl)ccc3F)CC[C@H](OC)[C@]34C1[C@@H](C[C@H]23)[C@@]1(O)C[C@H](OC)[C@H]2C[C@@H]4[C@]1(O)[C@H]2OC`: the inhibition at 30 µM with BV-2 [1] amounted to 36.1%. For the same compound, the viability at 24 h, 30 µM in series [2] was 95.1%.
On the same counts, the results for `CCN1C[C@]2(OC(=O)c3ccccc3NC(=O)CN(C)C)CC[C@H](OC)[C@]34C1[C@@H](C[C@H]23)[C@@]1(O)C[C@H](OC)[C@H]2C[C@@H]4[C@]1(O)[C@H]2OC` are 20.2% and 94.5%.
As to `CCN1C[C@]2(OC(=O)c3ccccc3NC(=O)C3CCCC3)CC[C@H](OC)[C@]34C1[C@@H](C[C@H]23)[C@@]1(O)C[C@H](OC)[C@H]2C[C@@H]4[C@]1(O)[C@H]2OC`, the inhibition at 30 µM with BV-2 [1] is 37.9%. Also, the viability at 24 h, 30 µM in series [2] amounted to 107%.
For the compound `O=c1c(O)c(-c2ccc(O)c(O)c2)oc2cc(O)cc(O)c12` [QUERCETIN], in the series on BV-2 [1], the inhibition at 30 µM was 76.7%. Moreover, in series [2], the viability at 24 h, 30 µM turned out to be 99.5%.
As for `CCN1C[C@]2(OC(=O)c3ccccc3NC(=O)C3CCCO3)CC[C@H](OC)[C@]34C1[C@@H](C[C@H]23)[C@@]1(O)C[C@H](OC)[C@H]2C[C@@H]4[C@]1(O)[C@H]2OC` (some centres not stated), the inhibition at 30 µM with BV-2 [1] amounted to 14.5%. For the same compound, in series [2], the viability at 24 h, 30 µM turned out to be 108%.
On the same counts, the results for `CCN1C[C@]2(OC(=O)c3ccccc3NC(=O)S(=O)(=O)CC)CC[C@H](OC)[C@]34C1[C@@H](C[C@H]23)[C@@]1(O)C[C@H](OC)[C@H]2C[C@@H]4[C@]1(O)[C@H]2OC` are 12.5% and 106%.
As for `CCN1C[C@]2(OC(=O)c3ccccc3NC(=O)S(=O)(=O)c3ccc(C#N)cc3Cl)CC[C@H](OC)[C@]34C1[C@@H](C[C@H]23)[C@@]1(O)C[C@H](OC)[C@H]2C[C@@H]4[C@]1(O)[C@H]2OC`, the inhibition at 30 µM in the series on BV-2 [1] amounted to 12.5%. Moreover, in series [2], the viability at 24 h, 30 µM was found to be 99.4%.
`CCCCCCC(=O)Nc1ccccc1C(=O)O[C@@]12CC[C@H](OC)[C@]34C([C@@H](C[C@H]13)[C@@]1(O)C[C@H](OC)[C@H]3C[C@@H]4[C@]1(O)[C@H]3OC)N(CC)C2`: in the series on BV-2 [1], the inhibition at 30 µM turned out to be 30%. Further, the viability at 24 h, 30 µM in series [2] was determined as 100%.
`CCN1C[C@]2(COC)CC[C@H](OC)[C@]34C1[C@@H](C[C@H]23)[C@@]1(O)C[C@H](OC)[C@H]2C[C@@H]4[C@]1(O)[C@H]2OC(=O)c1ccccc1N`: the inhibition at 30 µM with BV-2 [1] was 19.4%. In addition, the viability at 24 h, 30 µM in series [2] was determined as 101%.

As usually defined, the inhibition is the relative decrease from the control value, in per cent. By IC50 is commonly meant the concentration that gives 50% inhibition.
